Measurements: ChEMBL document CHEMBL3045188, “Synthesis and antibacterial, antimycobacterial and docking studies of novel N-piperazinyl fluoroquinolones” (Med Chem Res, 2013)
Converted amounts (≈) assume the structure as drawn. The source made the active and inactive calls. The rule behind the calls is not given here.

Columns and labels:
[1] = tested on: Mycobacterium tuberculosis; test: Antimycobacterial activity against Mycobacterium tuberculosis H37Rv assessed as growth inhibition after 21 days by broth dilution assay; format: functional
Staphylococcus aureus = test: Antibacterial activity against Staphylococcus aureus ATCC 25365 assessed as growth inhibition after 18 hr by broth microdilution method; format: functional; conditions: ATCC 25365, 18 h
Escherichia coli = test: Antibacterial activity against Escherichia coli MTCC 1089 assessed as growth inhibition after 18 hr by broth microdilution method; format: functional; conditions: MTCC 1089, 18 h
Pseudomonas aeruginosa = test: Antibacterial activity against Pseudomonas aeruginosa ATCC 25619 assessed as growth inhibition after 18 hr by broth microdilution method; format: functional; conditions: ATCC 25619, 18 h
[2] = Selectivity index, ratio of IC50 for african green monkey Vero cells to MIC for Mycobacterium tuberculosis H37Rv; format: toxicity, cell-based; conditions: read-out: Selectivity Index
Corynebacterium = test: Antibacterial activity against Corynebacterium ATCC 29355 assessed as growth inhibition after 18 hr by broth microdilution method; format: functional; conditions: ATCC 29355, 18 h
Vero = test: Cytotoxicity against Chlorocebus aethiops (African green monkey) Vero cells assessed as inhibition of cell viability after 96 hr by MTT assay; format: cell-based; conditions: Chlorocebus sabaeus

CCn1cc(C(=O)O)c(=O)c2cc(F)c(N3CCN(c4nnc(SCC(=O)c5ccc([N+](=O)[O-])cc5)s4)CC3)cc21
MIC ([1]; 504 h): 1 µg/mL (≈ 1.67 µM)
MIC (Staphylococcus aureus): 2 µg/mL (≈ 3.34 µM)
MIC (Escherichia coli): 16 µg/mL (≈ 26.7 µM)
MIC (Pseudomonas aeruginosa): > 64 µg/mL
selectivity ratio [2]: > 10.2
MIC (Corynebacterium): 1 µg/mL (≈ 1.67 µM)
IC50 (Vero): > 10.2 µg/mL

O=C(CSc1nnc(N2CCN(c3cc4c(cc3F)c(=O)c(C(=O)O)cn4C3CC3)CC2)s1)c1ccccc1
MIC [1]: inactive
MIC (Staphylococcus aureus): 16 µg/mL (≈ 28.3 µM)
MIC (Escherichia coli): 32 µg/mL (≈ 56.6 µM)
MIC (Pseudomonas aeruginosa): > 64 µg/mL
MIC (Corynebacterium): 16 µg/mL (≈ 28.3 µM)

O=C(CSc1nnc(N2CCN(c3cc4c(cc3F)c(=O)c(C(=O)O)cn4C3CC3)CC2)s1)c1ccc(Br)cc1
MIC ([1]; 504 h): 2 µg/mL (≈ 3.1 µM)
MIC (Staphylococcus aureus): 8 µg/mL (≈ 12.4 µM)
MIC (Escherichia coli): 16 µg/mL (≈ 24.8 µM)
MIC (Pseudomonas aeruginosa): > 64 µg/mL
selectivity ratio [2]: 3
MIC (Corynebacterium): 4 µg/mL (≈ 6.21 µM)
IC50 (Vero): 6 µg/mL (≈ 9.31 µM)

CCn1cc(C(=O)O)c(=O)c2cc(F)c(N3CCN(c4nnc(SCC(=O)c5ccc(Cl)cc5)s4)CC3)cc21
MIC ([1]; 504 h): 1.5 µg/mL (≈ 2.55 µM)
MIC (Staphylococcus aureus): 4 µg/mL (≈ 6.8 µM)
MIC (Escherichia coli): 32 µg/mL (≈ 54.4 µM)
MIC (Pseudomonas aeruginosa): > 64 µg/mL
selectivity ratio [2]: 2.67
MIC (Corynebacterium): 2 µg/mL (≈ 3.4 µM)
IC50 (Vero): 4 µg/mL (≈ 6.8 µM)

NNC(=O)c1ccncc1 [ISONIAZID]
MIC ([1]; 504 h): 1.5 µg/mL (≈ 10.9 µM)
IC50 (Vero): > 12 µg/mL

CCn1cc(C(=O)O)c(=O)c2cc(F)c(N3CCN(c4nnc(SCC(=O)c5ccc(Br)cc5)s4)CC3)cc21
MIC ([1]; 504 h): 2.5 µg/mL (≈ 3.95 µM)
MIC (Staphylococcus aureus): 8 µg/mL (≈ 12.6 µM)
MIC (Escherichia coli): 32 µg/mL (≈ 50.6 µM)
MIC (Pseudomonas aeruginosa): > 64 µg/mL
selectivity ratio [2]: 2
MIC (Corynebacterium): 4 µg/mL (≈ 6.32 µM)
IC50 (Vero): 5 µg/mL (≈ 7.9 µM)

O=C(CSc1nnc(N2CCN(c3cc4c(cc3F)c(=O)c(C(=O)O)cn4C3CC3)CC2)s1)c1ccc(F)cc1
MIC ([1]; 504 h): 5 µg/mL (≈ 8.57 µM)
MIC (Staphylococcus aureus): 8 µg/mL (≈ 13.7 µM)
MIC (Escherichia coli): 16 µg/mL (≈ 27.4 µM)
MIC (Pseudomonas aeruginosa): 32 µg/mL (≈ 54.8 µM)
MIC (Corynebacterium): 4 µg/mL (≈ 6.85 µM)

COc1ccc(C(=O)CSc2nnc(N3CCN(c4cc5c(cc4F)c(=O)c(C(=O)O)cn5C4CC4)CC3)s2)cc1
MIC ([1]; 504 h): 10 µg/mL (≈ 16.8 µM)
MIC (Staphylococcus aureus): 2 µg/mL (≈ 3.36 µM)
MIC (Escherichia coli): 32 µg/mL (≈ 53.7 µM)
MIC (Pseudomonas aeruginosa): > 64 µg/mL
MIC (Corynebacterium): 1 µg/mL (≈ 1.68 µM)

Cc1ccc(C(=O)CSc2nnc(N3CCN(c4cc5c(cc4F)c(=O)c(C(=O)O)cn5C4CC4)CC3)s2)cc1
MIC [1]: inactive
MIC (Staphylococcus aureus): 8 µg/mL (≈ 13.8 µM)
MIC (Escherichia coli): 16 µg/mL (≈ 27.6 µM)
MIC (Pseudomonas aeruginosa): > 64 µg/mL
MIC (Corynebacterium): 4 µg/mL (≈ 6.9 µM)

CCn1cc(C(=O)O)c(=O)c2cc(F)c(N3CCN(c4nnc(SCC(=O)c5ccccc5)s4)CC3)cc21
MIC [1]: inactive
MIC (Staphylococcus aureus): 32 µg/mL (≈ 57.8 µM)
MIC (Escherichia coli): > 64 µg/mL
MIC (Pseudomonas aeruginosa): > 64 µg/mL
MIC (Corynebacterium): 16 µg/mL (≈ 28.9 µM)

O=C(O)c1cn(C2CC2)c2cc(N3CCNCC3)c(F)cc2c1=O [CIPROFLOXACIN]
MIC (Staphylococcus aureus): 2 µg/mL (≈ 6.04 µM)
MIC (Pseudomonas aeruginosa): 4 µg/mL (≈ 12.1 µM)

CCn1cc(C(=O)O)c(=O)c2cc(F)c(N3CCN(c4nnc(SCC(=O)c5ccc(OC)cc5)s4)CC3)cc21
MIC ([1]; 504 h): 10 µg/mL (≈ 17.1 µM)
MIC (Staphylococcus aureus): 2 µg/mL (≈ 3.43 µM)
MIC (Escherichia coli): > 64 µg/mL
MIC (Pseudomonas aeruginosa): > 64 µg/mL
MIC (Corynebacterium): 1 µg/mL (≈ 1.71 µM)

CCn1cc(C(=O)O)c(=O)c2cc(F)c(N3CCN(c4nnc(SCC(=O)c5ccc(C)cc5)s4)CC3)cc21
MIC [1]: inactive
MIC (Staphylococcus aureus): 8 µg/mL (≈ 14.1 µM)
MIC (Escherichia coli): > 64 µg/mL
MIC (Pseudomonas aeruginosa): > 64 µg/mL
MIC (Corynebacterium): 4 µg/mL (≈ 7.05 µM)

CCn1cc(C(=O)O)c(=O)c2cc(F)c(N3CCNCC3)cc21 [NORFLOXACIN]
MIC (Staphylococcus aureus): 2 µg/mL (≈ 6.26 µM)
MIC (Escherichia coli): 2 µg/mL (≈ 6.26 µM)
MIC (Pseudomonas aeruginosa): 4 µg/mL (≈ 12.5 µM)
MIC (Corynebacterium): 2 µg/mL (≈ 6.26 µM)

CO[C@H]1/C=C/O[C@@]2(C)Oc3c(C)c(O)c4c(O)c(c(/C=N/N5CCN(C)CC5)c(O)c4c3C2=O)NC(=O)/C(C)=C\C=C\[C@H](C)[C@H](O)[C@@H](C)[C@@H](O)[C@@H](C)[C@H](OC(C)=O)[C@@H]1C [RIFAMPIN]
MIC ([1]; 504 h): 1 µg/mL (≈ 1.22 µM)
selectivity ratio [2]: > 10
IC50 (Vero): > 10 µg/mL

O=C(CSc1nnc(N2CCN(c3cc4c(cc3F)c(=O)c(C(=O)O)cn4C3CC3)CC2)s1)c1ccc([N+](=O)[O-])cc1
MIC ([1]; 504 h): 0.5 µg/mL (≈ 0.819 µM)
MIC (Staphylococcus aureus): 1 µg/mL (≈ 1.64 µM)
MIC (Escherichia coli): 32 µg/mL (≈ 52.4 µM)
MIC (Pseudomonas aeruginosa): > 64 µg/mL
selectivity ratio [2]: > 12.2
MIC (Corynebacterium): 0.5 µg/mL (≈ 0.819 µM)
IC50 (Vero): > 6.1 µg/mL

CCn1cc(C(=O)O)c(=O)c2cc(F)c(N3CCN(c4nnc(SCC(=O)c5ccc(F)cc5)s4)CC3)cc21
MIC ([1]; 504 h): 5 µg/mL (≈ 8.75 µM)
MIC (Staphylococcus aureus): 4 µg/mL (≈ 7 µM)
MIC (Escherichia coli): > 64 µg/mL
MIC (Pseudomonas aeruginosa): 32 µg/mL (≈ 56 µM)
MIC (Corynebacterium): 2 µg/mL (≈ 3.5 µM)

O=C(CSc1nnc(N2CCN(c3cc4c(cc3F)c(=O)c(C(=O)O)cn4C3CC3)CC2)s1)c1ccc(Cl)cc1
MIC ([1]; 504 h): 1 µg/mL (≈ 1.67 µM)
MIC (Staphylococcus aureus): 4 µg/mL (≈ 6.67 µM)
MIC (Escherichia coli): 16 µg/mL (≈ 26.7 µM)
MIC (Pseudomonas aeruginosa): > 64 µg/mL
selectivity ratio [2]: 3
MIC (Corynebacterium): 2 µg/mL (≈ 3.33 µM)
IC50 (Vero): 3 µg/mL (≈ 5 µM)
